Laboratory results: the NIST ThermoML archive (doi:10.1016/j.jct.2016.09.007)

Assay: xn = mol fraction of the nth substance listed
Details: 93.2 kPa, Liquid; for mass density: Vibrating tube method; for speed of sound: Frequency=3 MHz, Sing-around technique in a fixed-path interferometer

CCCC(=O)[O-].CCCC[NH3+] [n-butylammonium butanoate] + CCCCCO
Details | mass density, 303.15 K [kg/m3] | mass density, 308.15 K [kg/m3] | mass density, 313.15 K [kg/m3] | speed of sound, 308.15 K [m/s] | speed of sound, 313.15 K [m/s]
x1 = 0.0504 | 817.568 | 813.834 | 810.063 | 1250.4 | 1233.7
x1 = 0.1004 | 826.701 | 822.985 | 819.232 | 1257.6 | 1240.9
x1 = 0.1491 | 834.886 | 831.191 | 827.462 | 1264.2 | 1247.4
x1 = 0.2025 | 843.247 | 839.579 | 835.881 | 1271.2 | 1254.4
x1 = 0.2513 | 850.29 | 846.65 | 842.977 | 1277.5 | 1260.7
x1 = 0.3007 | 856.983 | 853.372 | 849.736 | 1283.7 | 1267
x1 = 0.3506 | 863.432 | 859.854 | 856.248 | 1290.2 | 1273.4
x1 = 0.4003 | 869.437 | 865.888 | 862.315 | 1296.4 | 1279.8
x1 = 0.4485 | 874.989 | 871.466 | 867.921 | 1302.4 | 1285.7
x1 = 0.4981 | 880.283 | 876.786 | 873.27 | 1308.3 | 1291.8
x1 = 0.549 | 885.516 | 882.044 | 878.557 | 1314.5 | 1298
x1 = 0.5979 | 890.251 | 886.802 | 883.336 | 1320.3 | 1303.8
x1 = 0.6483 | 894.993 | 891.566 | 888.123 | 1326.5 | 1310
x1 = 0.6971 | 899.338 | 895.935 | 892.514 | 1332.5 | 1315.9
x1 = 0.7444 | 903.359 | 899.982 | 896.583 | 1338.1 | 1321.6
x1 = 0.7997 | 907.929 | 904.583 | 901.213 | 1345 | 1328.3
x1 = 0.8466 | 911.586 | 908.265 | 904.921 | 1350.9 | 1334.1
x1 = 0.901 | 915.606 | 912.298 | 908.979 | 1358 | 1341
x1 = 0.9495 | 919.075 | 915.767 | 912.465 | 1364.4 | 1347
x1 = 1 | 922.217 | 918.88 | 915.567 | 1371.5 | 1353.6
